Measurements as given in ChEMBL document CHEMBL4385604, “Identification of Pyrrolo[2,3- d]pyrimidine-Based Derivatives as Potent and Orally Effective Fms-like Tyrosine Receptor Kinase 3 (FLT3) Inhibitors for Treating Acute Myelogenous Leukemia” (J Med Chem, 2019).

Legend:
MV4-11 [1] = experiment: Induction of apoptosis in human MV4-11 cells assessed as late apoptotic cells at 10 nM after 48 hrs by Annexin V/propidium iodide staining based flow cytometry (reference value: 2.83%); type: functional
MOLM-13 [2] = experiment: Induction of apoptosis in human MOLM13 cells assessed as viable cells at 10 nM after 48 hrs by Annexin V/propidium iodide staining based flow cytometry (reference value: 88.2%); type: functional; conditions: MOLM-13, 48 h, read-out: Activity
MOLM-13 [3] = experiment: Cell cycle arrest in human MOLM13 cells assessed as accumulation at G0/G1 phase at 10 nM after 24 hrs by propidium iodide staining-based flow cytometric analysis (reference value: 44.53%); type: functional
MV4-11 [4] = experiment: Induction of apoptosis in human MV4-11 cells assessed as necrotic cells at 1 nM after 48 hrs by Annexin V/propidium iodide staining based flow cytometry (reference value: 0.06%); type: functional
MV4-11 [5] = experiment: Cell cycle arrest in human MV4-11 cells assessed as accumulation at G0/G1 phase at 1 nM after 24 hrs by propidium iodide staining-based flow cytometric analysis (reference value: 48.76%); type: functional
MV4-11 [6] = experiment: Induction of apoptosis in human MV4-11 cells assessed as necrotic cells at 1 uM after 48 hrs by Annexin V/propidium iodide staining based flow cytometry (reference value: 0.06%); type: functional
[7] = target: Receptor-type tyrosine-protein kinase FLT3 (Homo sapiens, UniProt P36888, D835H); experiment: Binding affinity to human partial length FLT3 D835H mutant (V592 to Y969 residues) expressed in Escherichia coli after 1 hr by qPCR analysis
BaF3 [8] = experiment: cells; conditions: Mus musculus, BaF3, 72 h
Description: Antiproliferative activity against mouse BAF3 cells harboring FLT3-ITD mutant measured after 72 hrs by MTT assay

MV4-11 [9] = experiment: Induction of apoptosis in human MV4-11 cells assessed as late apoptotic cells at 1 nM after 48 hrs by Annexin V/propidium iodide staining based flow cytometry (reference value: 2.83%); type: functional
[10] = target: Receptor-type tyrosine-protein kinase FLT3 (Homo sapiens) (UniProt P36888); experiment: Inhibition of FLT3 autophosphorylation in human MV4-11 cells assessed as ratio of phosphorylated FLT3 to beta-actin level at 30 nM after 2 hrs by Western blot analysis relative to control; type: cell-based
MV4-11 [11] = experiment: Cell cycle arrest in human MV4-11 cells assessed as accumulation at G2/M phase at 3 nM after 24 hrs by propidium iodide staining-based flow cytometric analysis (reference value: 21.12%); type: functional
MV4-11 [12] = experiment: Cell cycle arrest in human MV4-11 cells assessed as accumulation at G2/M phase at 10 nM after 24 hrs by propidium iodide staining-based flow cytometric analysis (reference value: 21.12%); type: functional
BaF3 [13] = experiment: cells; conditions: Mus musculus, BaF3, 72 h; remark: listed apart in the source
Description: Antiproliferative activity against mouse BAF3 cells harboring FLT3-ITD-F691L mutant measured after 72 hrs by MTT assay

MV4-11 [14] = experiment: Induction of apoptosis in human MV4-11 cells assessed as necrotic cells at 100 nM after 48 hrs by Annexin V/propidium iodide staining based flow cytometry (reference value: 0.06%); type: functional
MV4-11 [15] = experiment: Antitumour activity against human MV4-11 cells xenografted in NOD/SCID mouse assessed as tumour growth inhibition at 3 mg/kg, po qd for 14 days measured every two days during compound dosing by caliper method relative to control; type: functional; conditions: MV4-11, po, read-out: TGI
MV4-11 [16] = experiment: Cell cycle arrest in human MV4-11 cells assessed as accumulation at S phase at 3 nM after 24 hrs by propidium iodide staining-based flow cytometric analysis (reference value: 30.12%); type: functional
[17] = system: Receptor-type tyrosine-protein kinase FLT3 (Homo sapiens), P36888 [UNDEFINED MUTATION]; experiment: Inhibition of FLT3 ITD mutant in human MOLM13 cells assessed as ratio of phosphorylated STAT5 to beta-actin level at 100 nM after 2 hrs by Western blot analysis relative to control; type: cell-based
MOLM-13 [18] = experiment: Cell cycle arrest in human MOLM13 cells assessed as accumulation at G0/G1 phase at 30 nM after 24 hrs by propidium iodide staining-based flow cytometric analysis (reference value: 44.53%); type: functional
[19] = target: Receptor-type tyrosine-protein kinase FLT3 (Homo sapiens, UniProt P36888, R834Q); experiment: Binding affinity to human partial length FLT3 R834Q mutant (V592 to Y969 residues) expressed in HEK293 cells measured after 1 hr by qPCR analysis; type: cell-based
MV4-11 [20] = experiment: Cell cycle arrest in human MV4-11 cells assessed as accumulation at G0/G1 phase at 10 nM after 24 hrs by propidium iodide staining-based flow cytometric analysis (reference value: 48.76%); type: functional
Homo sapiens = species on record: Homo sapiens; experiment: Inhibition of MAPK in human MOLM13 cells assessed as ratio of phosphorylated ERK to beta-actin level at 100 nM after 2 hrs by Western blot analysis relative to control; type: cell-based
MOLM-13 [21] = experiment: Induction of apoptosis in human MOLM13 cells assessed as necrotic cells at 10 uM after 48 hrs by Annexin V/propidium iodide staining based flow cytometry (reference value: 0.29%); type: functional
MV4-11 [22] = experiment: Induction of apoptosis in human MV4-11 cells assessed as early apoptotic cells at 1 uM after 48 hrs by Annexin V/propidium iodide staining based flow cytometry (reference value: 2.76%); type: functional
BaF3 [23] = experiment: cells; conditions: Mus musculus, BaF3, 72 h; remark: listed apart in the source
Description: Antiproliferative activity against mouse BAF3 cells harboring FLT3-ITD-D835V mutant measured after 72 hrs by MTT assay

MOLM-13 [24] = experiment: Cell cycle arrest in human MOLM13 cells assessed as accumulation at G2/M phase at 3 nM after 24 hrs by propidium iodide staining-based flow cytometric analysis (reference value: 13.52%); type: functional
[25] = target: Receptor-type tyrosine-protein kinase FLT3 (Homo sapiens, UniProt P36888, D835Y); experiment: Binding affinity to human partial length FLT3 D835Y mutant (Q580 to Y969 residues) expressed in Escherichia coli after 1 hr by qPCR analysis
MV4-11 [26] = experiment: Antitumour activity against human MV4-11 cells xenografted in NOD/SCID mouse assessed as tumour growth inhibition at 10 mg/kg, po qd for 18 days measured every two days during compound dosing by caliper method relative to control; type: functional; conditions: MV4-11, po, read-out: TGI
MV4-11 [27] = experiment: Cell cycle arrest in human MV4-11 cells assessed as accumulation at G0/G1 phase at 3 nM after 24 hrs by propidium iodide staining-based flow cytometric analysis (reference value: 48.76%); type: functional
[28] = target: Receptor-type tyrosine-protein kinase FLT3 (Homo sapiens) (UniProt P36888); experiment: Inhibition of FLT3 autophosphorylation in human MOLM13 cells assessed as ratio of phosphorylated FLT3 to beta-actin level at 100 nM after 2 hrs by Western blot analysis relative to control; type: cell-based
MV4-11 [29] = experiment: Induction of apoptosis in human MV4-11 cells assessed as early apoptotic cells at 100 nM after 48 hrs by Annexin V/propidium iodide staining based flow cytometry (reference value: 2.76%); type: functional
[30] = Toxicity in NOD/SCID mouse xenografted with human MOLM13 cells at 1 to 10 mg/kg, po qd for 10 days; type: organism-based; conditions: in vivo, 240 h
[31] = target: Receptor-type tyrosine-protein kinase FLT3 (Homo sapiens, UniProt P36888, N841I); experiment: Binding affinity to human partial length FLT3 N841I mutant (V592 to Y969 residues) expressed in Escherichia coli after 1 hr by qPCR analysis
MOLM-13 [32] = experiment: Induction of apoptosis in human MOLM13 cells assessed as necrotic cells at 100 nM after 48 hrs by Annexin V/propidium iodide staining based flow cytometry (reference value: 0.29%); type: functional

Kd [7]: 5.14 nM
IC50 (BaF3 [8]): 0.92 nM
fold change (FC) [10]: 0
IC50 (BaF3 [13]): 13 nM
fold change (FC) [17]: 0
Kd [19]: 10.2 nM
IC50 (BaF3 [23]): 20.7 nM
Kd [25]: 7.78 nM
fold change (FC) [28]: 0
Kd [31]: 2.37 nM
Compound: C=CCn1cc(-c2ccc(NC(=O)Nc3cc(C(C)(C)C)on3)cc2)c2c(N)ncnc21
Activity (MV4-11 [1]): 11%
viability at 0.01 µM (MOLM-13 [2]): 66.1%
Activity (MOLM-13 [3]): 94.62%
Activity (MV4-11 [4]): 0.13%
Activity (MV4-11 [5]): 50.94%
Activity (MV4-11 [6]): 0.32%
Activity (MV4-11 [9]): 4.62%
Activity (MV4-11 [11]): 4.08%
Activity (MV4-11 [12]): 2.2%
Activity (MV4-11 [14]): 0.36%
inhibition in vivo at 3 mg/kg (MV4-11 [15]): 98.2%
Activity (MV4-11 [16]): 8.81%
Activity (MOLM-13 [18]): 94.68%
Activity (MV4-11 [20]): 95.74%
fold change (FC) (Homo sapiens): 0.12
Activity (MOLM-13 [21]): 0.4%
Activity (MV4-11 [22]): 19.9%
Activity (MOLM-13 [24]): 4.55%
inhibition in vivo at 10 mg/kg (MV4-11 [26]): 100%
Activity (MV4-11 [27]): 87.11%
Activity (MV4-11 [29]): 11.3%
Activity [30]: Non-Toxic
Activity (MOLM-13 [32]): 0.19%
